Experimental data taken from paper PMC3169616, “Unique Residues Involved in Activation of the Multitasking Protease/Chaperone HtrA from Chlamydia trachomatis” (PLoS ONE, 2011).
“Also recorded” adds a separate entry of the source.

What was measured:
[1] = target: T1, CtHtrA (Chlamydia trachomatis serovar D, UniProt P18584); experiment: Activation of CtHtrA cleavage of Bcas1 substrate by added activator; format: biochemical; settings: substrate Bcas1 (MCA-ENLHLPLPIIF-DNP), fluorimetric, 37°C
T1 construct: His-tag; made in house; host or cells: E. coli BL21 (DE3), plasmid pETHtrA
T1 sequence (P18584 17-497): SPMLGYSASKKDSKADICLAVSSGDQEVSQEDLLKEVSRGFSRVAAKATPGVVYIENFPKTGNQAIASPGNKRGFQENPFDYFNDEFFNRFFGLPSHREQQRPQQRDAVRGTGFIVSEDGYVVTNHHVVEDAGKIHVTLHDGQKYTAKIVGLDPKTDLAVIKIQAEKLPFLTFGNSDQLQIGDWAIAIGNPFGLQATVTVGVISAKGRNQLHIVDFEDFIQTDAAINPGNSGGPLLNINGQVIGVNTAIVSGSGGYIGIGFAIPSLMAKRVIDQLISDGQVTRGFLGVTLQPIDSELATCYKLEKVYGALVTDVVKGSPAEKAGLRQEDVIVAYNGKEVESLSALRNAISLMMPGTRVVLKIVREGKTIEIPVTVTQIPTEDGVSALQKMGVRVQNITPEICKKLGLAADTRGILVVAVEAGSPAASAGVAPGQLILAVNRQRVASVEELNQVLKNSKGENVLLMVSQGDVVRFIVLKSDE
Method: To determine if the addition of a second peptide to the protease assays could activate or increase CtHtrA proteolysis, two activator peptides were tested in the CtHtrA cleavage of the model ß-casein peptide substrate Bcas1. The first was based on the ß-casein C-terminal sequence (Act1: NH2-VLGPVRGPFPIIV-OH) and the second on insulin b chain C-terminal sequence (Act2: NH2-CGELGFFYTP-OH).
Finally, in order to determine if the 24-mer (highest amount with MOMP protein, or Act1), or 12-mer, or both, corresponds to enhanced protease activity, the incubations of CtHtrA and these potential in vivo activators were used for protease assays with the Bcas1 substrate (Fig. 6). […] The presence of the majority of CtHtrA as higher order oligomers correlated with an increased rate of proteolysis for CtHtrA, particularly when these oligomers were predominately 24-mers.
The purified recombinant protein was examined by Coomassie stained polyacrylamide gels and activity was checked using ß-casein cleavage assays prior to use in peptide assays. Briefly, this involved incubating 2 µg of the protease with 10 µg of ß-casein in 50 mM Tris pH 7.0, 20 mM MgCl2 for 2 h prior to examining the assays by SDS PAGE (ß-casein and protease only controls were always conducted). Protease assays using peptides were conducted using custom synthesised peptides (Mimotopes). […] Protease assays using pNA labelled peptides were conducted using the xMARK Microplate spectrophotometer (Bio-Rad) at 405 nm, incubated at 37°C, with a reading taken every 10 s for 30 min. The maximum slope over a minimum of 8 readings was used for the data analysis. […] The assays were excited at 340 nm and emission was detected at 405 nm with a gain of 1000, the assays were monitored every 20 s or at the minimum cycle time for up to 40 min. […] The assay results shown for the fluorescent compounds have been normalised for the amount of fluorescent emission detected using a standard curve of known concentrations of the MCA fluorophore under the identical assay conditions. […]

[2] = target: T1, CtHtrA; experiment: Oligomerisation assay (glutaraldehyde crosslinking, 3-8% TrisAcetate gel, silver stain); format: biochemical; settings: wild type CtHtrA 2 mg/ml, 100 mM sodium phosphate pH 7.0, 10 mins at 37°C, 0.5% glutaraldehyde fixation
Method: (§1) E. coli DegP proteolysis activation involves the transition from resting hexamers via trimers to 12- and 24-mers following the peptide activator binding to the PDZ1 binding cleft. CtHtrA oligomer formation induced by Act1 addition was examined after incubation for 10 mins at 37°C. The wild type and mutant proteins were incubated with either the ß-casein based activator peptide (Act1), or with whole insulin (intact), or in the absence of any activator as a control. CtHtrA incubated in the absence of any added activators formed 24-mers with some hexamers detected after 10 mins (Fig. 5). […] The R299W mutant was present as hexamer and 24-mer in the control with no activator. […] The L302N mutant was not detected in any higher oligomeric form under any conditions. L302N was detected as faint hexamer and trimer but mostly monomer under all tested conditions (not visible on these gels). […] I365D was detected as hexamers, trimers, 12-mers, and some 24-mers when incubated in the absence of activators.
(§2) The oligomerisation of HtrA into 12- and 24-mer complexes has been independently detected for E. coli HtrA (DegP). The oligomerisation of HtrA (DegP) was triggered by peptides from digested ß-casein [18]. Assays to detect whether CtHtrA and site directed mutant protein oligomerisation was triggered by substrates were conducted essentially as previously described (Merdanovic et al., 2010). Briefly, 2 mg/ml protein solutions in 100 mM sodium phosphate buffer pH 7.0 were pre-incubated to the required temperature. The ligands (activator peptide, or insulin) were added and at 10 min, and the proteins were fixed using 0.5% glutaraldehyde. Samples were fixed at room temperature for 2 min prior to addition of 1 M Tris pH 7.5 to remove any excess glutaraldehyde. Samples were incubated for another 10 min at room temperature prior to addition of SDS PAGE reducing loading buffer. The protein samples were examined on 3–8% TrisAcetate gradient polyacrylamide gels (Novex, Invitrogen) by silver staining. The proteins used in this study were not initially denatured by treatment with urea as, the refolding, formation of oligomers, and protease activity was never successfully detected with denatured CtHtrA. All assays were conducted in duplicate on three separate occasions with at least two gels of each experiment completed for each assay condition.

[3] = tested on: CtHtrA I365D; experiment: Oligomerisation assay, mutated protein; format: biochemical, Chlamydia trachomatis; settings: I365D mutant, 10 mins incubation
Method: as §1, §2

[4] = tested on: CtHtrA R299W; experiment: Oligomerisation assay, mutated protein; format: biochemical, Chlamydia trachomatis; settings: R299W mutant, 10 mins incubation
Method: as §1, §2

[5] = tested on: CtHtrA R373A/R299W; experiment: Oligomerisation assay, mutated protein; format: biochemical, Chlamydia trachomatis; settings: R373A/R299W mutant, 10 mins incubation
Source text: This activation was very similar to that observed for CtHtrA, and was the only condition during which any of the mutated proteins oligomerised in a similar profile to CtHtrA.
as §2, with “All assays were conducted in duplicate on three separate occasions with at least two gels of each experiment completed for each assay condition.” left out

Substance: H-VLGPVRGPFPIIV-OH [Act1]
- effect of activator on rate of CtHtrA proteolysis of Bcas1 [1]: greater ability of the two activators to increase the proteolysis rate; also recorded: increased proteolysis rate
- CtHtrA oligomer formation induced by activator [2]: induced the protein to form 24-mers
- oligomer formation induced by activator [3]: no 12-mers, but only hexamers and 24-mers were detected
- oligomer formation induced by activator [4]: Low levels of 24-mer were formed
- oligomer formation induced by activator [5]: induced R373A/R299W 24-mer formation
